Measurements from patent US11136320B2, “Fused ring derivative used as FGFR4 inhibitor” (JACOBIO PHARMACEUTICALS CO., LTD., priority 2019, dated 2021).
Where a name gives a salt, the structure may show the parent alone. Read-outs that look alike come from different tables or passages of the source. Blank lines part the entries; values can stand above or below the compound they belong to.

Legend:
[1] = system: Hepatoma cell Hep3B (high expression of FGFR4 and FGF19); test: Hepatoma cell proliferation inhibition experiment (MTS method); type: cell-based; conditions: for IC50: Homo sapiens, Hep3B, read-out: Hep3B(IC50 μM)
Description: In this experiment, the MTS method was used to test the inhibitory effect of the compounds on the proliferation of Hepatoma cell Hep3B (high expression of FGFR4 and FGF19), and the half inhibitory concentration IC50 of the compounds to Hep3B was obtained. The Hep3B cell line was purchased from ATCC, and the complete culture medium of the Hep3B cell line was MEM+10% FBS+1% PS. MEM cell culture medium, fetal bovine serum, and trypsin were purchased from Gibco, cell culture flasks were purchased from Greiner, and disposable Cell Counting Plate and Taittinger Blue Solution were purchased from Bio-Rad.
(1) 100 μl Hepatoma cell Hep3B suspension was seeded in a 96-well cell culture plate, and the density of each well was 2.0×10^4 cells/ml.
(3) A mixture of MTS (3-(4,5-dimethylthiazol-2-yl)-5-(3-carboxymethoxyphenyl)-2-(4-sulfophenyl)-2H-tetrazolium)/PMS (phenazine methosulfate) was added into each well for coloration, and MTS/PMS in the mixture was at a ratio of 20:1 (ml:ml). 30 μl of the mixture was added into each well of the culture plate above mentioned in step (2), then the culture plate was incubated for 3 h in the incubator.
(5) The inhibition rate was calculated by the […];
(6) According to the inhibition rate of the different concentrations, the IC50 values of the compounds were obtained by curve fitting.

[2] = PK analysis of rats; type: in vivo; conditions: p.o. (10 mg/kg); for AUC(0-t) / Cmax: rat, plasma, po; for AUC(0-t): read-out: Curve area AUC0-24 h; for Cmax: read-out: Drug concentration in blood Cmax
Protocol: In the present invention, the pharmacokinetics experiment of the compounds in rats was performed using the SD rats (Vitolihua).
(1) Mode of administration: single gavage administration and intravenous injection administration.
(2) Dosage: 10 mg/kg in the gavage administration, 3 mg/kg in the intravenous injection administration.
Gavage administration: before administration, 15 min, 30 min, 1 h, 2 h, 4 h, 6 h, 8 h, 24 h; […]
(4) Sample processing: 200 μL of orbital blood was collected at each sampling time point. After anticoagulation with heparin, the blood was centrifuged at 5500 rpm for 10 min, and 60 μL of the supernatant was taken and put into the refrigerator at −80° C. for waiting for testing.
Samples obtained after administration of Compound 1 were tested using 4000 LC-MS/MS analyzer, wherein, the chromatographic separation conditions for testing were:
Samples obtained after administration of Compound 7 were tested using 4000 LC-MS/MS analyzer, wherein, the chromatographic separation conditions for testing were:
Samples obtained after administration of Compound 16 were tested using 4000 LC-MS/MS analyzer, wherein, the chromatographic separation conditions for testing were: […]

[3] = biological target: T1, FGFR4 kinase (Homo sapiens (Human), UniProt P22455); test: biochemical
T1 sequence (P22455 22-802): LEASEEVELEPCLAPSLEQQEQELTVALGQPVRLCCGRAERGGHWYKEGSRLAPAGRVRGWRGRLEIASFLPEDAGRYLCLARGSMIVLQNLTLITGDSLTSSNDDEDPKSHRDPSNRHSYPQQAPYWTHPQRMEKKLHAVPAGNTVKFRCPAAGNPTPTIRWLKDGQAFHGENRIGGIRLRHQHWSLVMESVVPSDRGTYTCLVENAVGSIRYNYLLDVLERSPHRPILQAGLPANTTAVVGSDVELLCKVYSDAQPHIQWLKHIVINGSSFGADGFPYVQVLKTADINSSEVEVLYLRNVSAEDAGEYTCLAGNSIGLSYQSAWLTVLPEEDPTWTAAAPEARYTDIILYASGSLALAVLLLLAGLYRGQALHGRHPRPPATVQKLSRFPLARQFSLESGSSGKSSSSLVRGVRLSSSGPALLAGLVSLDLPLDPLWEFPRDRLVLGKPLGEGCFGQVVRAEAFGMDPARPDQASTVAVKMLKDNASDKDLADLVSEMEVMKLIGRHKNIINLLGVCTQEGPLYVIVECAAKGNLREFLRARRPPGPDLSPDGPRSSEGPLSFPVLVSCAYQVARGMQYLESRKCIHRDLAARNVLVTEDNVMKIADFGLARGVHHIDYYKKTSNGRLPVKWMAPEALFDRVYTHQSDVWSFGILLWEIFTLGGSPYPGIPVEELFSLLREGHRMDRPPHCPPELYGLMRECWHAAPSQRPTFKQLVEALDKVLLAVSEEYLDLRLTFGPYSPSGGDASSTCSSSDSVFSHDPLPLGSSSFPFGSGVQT

[4] = biological target: T1, FGFR4 kinase

SMILES: CSCCNc1cc(NC(=O)N2CCCc3cc(CN4CCN(C)CC4=O)c(C=O)nc32)ncc1C#N [Compound 1]
IC50 ([1]; 120 h incubation): 0.023 µM
exposure amount AUC0-24 h and maximum drug concentration in blood Cmax compared with the reference compound ([2]; SD rats): significantly higher than the reference compound
AUC(0-t) ([2]; Sprague-Dawley (SD)): 2370 ng·h/mL
Cmax ([2]; Sprague-Dawley (SD)): 833 ng/mL
IC50 [3]: 1.5 nM

SMILES: CSC(C)(C)CNc1cc(NC(=O)N2CCCc3cc(CN4CCN(C)CC4=O)c(C=O)nc32)ncc1C#N [Compound 6, N-(5-cyano-4-((2-methyl-2-(methylthio)propyl)amino)pyridin-2-yl)-7-formyl-6-((4-methyl-2-oxopiperazin-1-yl)methyl)-3,4-dihydro-1,8-naphthyridine-1 (2H)-carboxamide]
IC50 ([1]; 120 h): 0.049 µM
inhibitory effect on FGFR4 compared with the reference compound [4]: better inhibitory effect on FGFR4 than the reference compound
IC50 [3]: 2.1 nM

SMILES: CO[C@@H]1CCN(Cc2cc3c(nc2C=O)N(C(=O)Nc2cc(NCCSC)c(C#N)cn2)CCC3)C1=O [Compound 8, (R)-N-(5-cyano-4-((2-(methylthio)ethyl)amino)pyridin-2-yl)-7-formyl-6-((3-methoxy-2-oxopyrrolidin-1-yl)methyl)-3,4-dihydro-1,8-naphthyridine-1(2H)-carboxamide]
inhibitory effect on Hepatoma cell Hep3B compared with the reference compound [1]: better inhibitory effect
IC50 ([1]; 120 h incubation): 0.008 µM

SMILES: CO[C@@H]1CCN(Cc2cc3c(nc2C=O)N(C(=O)Nc2cc(N[C@H](C)CSC)c(C#N)cn2)CCC3)C1=O [Compound 9, N-(5-cyano-4-(((R)-1-(methylthio)propan-2-yl)amino)pyridin-2-yl)-7-formyl-6-(((R)-3-methoxy-2-oxopyrrolidin-1-yl)methyl)-3,4-dihydro-1,8-naphthyridine-1(2H)-carboxamide]
inhibitory effect on Hepatoma cell Hep3B compared with the reference compound [1]: better inhibitory effect
IC50 ([1]; 120 h incubation): 0.009 µM

SMILES: CSC[C@H](C)Nc1cc(NC(=O)N2CCCc3cc(CN4CCN(C)CC4=O)c(C=O)nc32)ncc1C#N [Compound 11, (S)-N-(5-cyano-4-((1-(methylthio)propan-2-yl)amino)pyridin-2-yl)-7-formyl-6-((4-methyl-2-oxopiperazin-1-yl)methyl)-3,4-dihydro-1,8-naphthyridine-1(2H)-carboxamide]
IC50 ([1]; 120 h incubation): 0.035 µM

SMILES: CSCCNc1cc(NC(=O)N2CCCc3cc(CN4CCCCOC4=O)c(C=O)nc32)ncc1C#N [Compound 16, N-(5-cyano-4-((2-(methylthio)ethyl)amino)pyridin-2-yl)-7-formyl-6-((2-oxo-1,3-oxazepan-3-yl)methyl)-3,4-dihydro-1,8-naphthyridine-1(2H)-carboxamide]
IC50 ([1]; 120 h incubation): 0.029 µM
exposure amount AUC0-24 h and maximum drug concentration in blood Cmax compared with the reference compound ([2]; SD rats): significantly higher than the reference compound
AUC(0-t) ([2]; SD rats): 3670 ng·h/mL
Cmax ([2]; SD rats): 936 ng/mL

SMILES: CN1CCN(Cc2cc3c(nc2C=O)N(C(=O)Nc2cc(NC4CCSCC4)c(C#N)cn2)CCC3)C(=O)C1 [Compound 20, N-(5-cyano-4-((tetrahydro-2H-thiopyran-4-yl)amino)pyridin-2-yl)-7-formyl-6-((4-methyl-2-oxopiperazin-1-yl)methyl)-3,4-dihydro-1,8-naphthyridine-1(2H)-carboxamide]
inhibitory effect on Hepatoma cell Hep3B compared with the reference compound [1]: better inhibitory effect
IC50 ([1]; 120 h incubation): 0.021 µM
exposure amount AUC0-24 h and maximum drug concentration in blood Cmax compared with the reference compound ([2]; SD rats): significantly higher than the reference compound
AUC(0-t) ([2]; SD rats): 2000 ng·h/mL
Cmax ([2]; SD rats): 514 ng/mL
IC50 [3]: 4.4 nM

SMILES: CN1CCN(Cc2cc3c(nc2C=O)N(C(=O)Nc2cc(NCC[S+](C)[O-])c(C#N)cn2)CCC3)C(=O)C1 (stereo not drawn) [Compound 27, N-(5-cyano-4-((2-(methyl-sulfinyl)ethyl)amino)pyridin-2-yl)-7-formyl-6-((4-methyl-2-oxopiperazin-1-yl)methyl)-3,4-dihydro-1,8-naphthyridine-1(2H)-carboxamide]
IC50 ([1]; 120 h incubation): 0.282 µM
inhibitory effect on FGFR4 compared with the reference compound [4]: better inhibitory effect on FGFR4 than the reference compound
IC50 [3]: 2.4 nM

SMILES: Cc1ccc(CNc2cc(NC(=O)N3CCCc4cc(CN5CCN(C)CC5=O)c(C=O)nc43)ncc2C#N)s1 [Compound 58, N-(5-cyano-4-(((5-methyl-thiophen-2-yl)methyl)amino)pyridin-2-yl)-7-formyl-6-((4-methyl-2-oxopiperazin-1-yl)methyl)-3,4-dihydro-1,8-naphthyridine-1(2H)-carboxamide]
inhibitory effect on FGFR4 compared with the reference compound [4]: better inhibitory effect on FGFR4 than the reference compound
IC50 [3]: 2.1 nM

SMILES: CCSCCNc1cc(NC(=O)N2CCCc3cc(CN4CCN(C)CC4=O)c(C=O)nc32)ncc1C#N [Compound 71, N-(5-cyano-44 (2-(ethylthio)ethypamino)pyridin-2-yl)-7-formyl-64 (4-methyl-2-oxopiperazin-1-yl)methyl)-3,4-dihydro-1,8-naphthyridine-1 (2H)-carboxamide hydrochloride]
IC50 ([1]; 120 h): 0.049 µM
exposure amount AUC0-24 h and maximum drug concentration in blood Cmax compared with the reference compound ([2]; SD rats): significantly higher than the reference compound
AUC(0-t) ([2]; Sprague-Dawley (SD)): 1950 ng·h/mL
Cmax ([2]; Sprague-Dawley (SD)): 657 ng/mL
IC50 [3]: 2.4 nM

SMILES: CSCCNc1cc(NC(=O)N2CCCc3cc(CN(C)C(=O)[C@H]4CCCO4)c(C=O)nc32)ncc1C#N [Compound 74, (R)-N-(5-cyano-4-((2-(methylthio)ethyl)amino)pyridin-2-yl)-7-formyl-6-((N-methyltetrahydrofuran-2-carboxamido)methyl)-3,4-dihydro-1,8-naphthyridine-1(2H)-carboxamide hydrochloride]
IC50 ([1]; 120 h incubation): 0.06 µM

SMILES: CSCC(C)Nc1cc(NC(=O)N2CCCc3cc(CN4CCN(C)CC4=O)c(C=O)nc32)ncc1C#N (stereo not drawn) [Compound 82, N-(5-cyano-4-((1-(methyl-thio)propan-2-yl)amino)pyridin-2-yl)-7-formyl-6-((4-methyl-2-oxopiperazin-1-yl)methyl)-3,4-dihydro-1,8-naphthyridine-1(2H)-carboxamide]
inhibitory effect on Hepatoma cell Hep3B compared with the reference compound [1]: better inhibitory effect
IC50 ([1]; 120 h incubation): 0.02 µM

Further lines, with some results ahead:

IC50 ([1]; 120 h incubation): 0.028 µM
SMILES: CSCCOc1cc(NC(=O)N2CCCc3cc(CN4CCN(C)CC4=O)c(C=O)nc32)ncc1C#N [Compound 2]

IC50 [3]: 3 nM
SMILES: CN1CCN(Cc2cc3c(nc2C=O)N(C(=O)Nc2cc(NCc4cncs4)c(C#N)cn2)CCC3)C(=O)C1 [Compound 55, N-(5-cyano-4-((thiazol-5-yl-methyl)amino)pyridin-2-yl)-7-formyl-6-((4-methyl-2-oxopiperazin-1-yl)methyl)-3,4-dihydro-1,8-naphthyridine-1(2H)-carboxamide]

IC50 [3]: 2.1 nM
SMILES: CN1CCN(Cc2cc3c(nc2C=O)N(C(=O)Nc2cc(NCc4cscn4)c(C#N)cn2)CCC3)C(=O)C1 [Compound 59, N-(5-Cyano-4-((thiazol-4-yl-methyl)amino)pyridin-2-yl)-7-formyl-6-((4-methyl-2-oxopiperazin-1-yl)methyl)-3,4-dihydro-1,8-naphthyridine-1(2H)-carboxamide]
inhibitory effect on FGFR4 compared with the reference compound [4]: better inhibitory effect on FGFR4 than the reference compound

IC50 [3]: 3 nM
SMILES: CC(Nc1cc(NC(=O)N2CCCc3cc(CN4CCN(C)CC4=O)c(C=O)nc32)ncc1C#N)c1nccs1 (stereo not drawn) [Compound 60, N-(5-cyano-4-((1-(thiazol-2-yl)ethyl)amino)pyridin-2-yl)-7-formyl-6-((4-methyl-2-oxopiperazin-1-yl)methyl)-3,4-dihydro-1,8-naphthyridine-1(2H)-carboxamide]

IC50 ([1]; 120 h incubation): 0.026 µM
SMILES: CN1CCN(Cc2cc3c(nc2C=O)N(C(=O)Nc2cc(NCc4ccsn4)c(C#N)cn2)CCC3)C(=O)C1 [Compound 68, N-(5-Cyano-4-((isothiazol-3-yl-methyl)amino)pyridin-2-yl)-7-formyl-6-((4-methyl-2-oxopiperazin-1-yl)methyl)-3-1,4-dihydro-1,8-naphthyridine-1(2H)-carboxamide]
